Tested on: Staphylococcus aureus ATCC 6538
Experiment: Combinatorial Minimum Inhibitory Concentration (cMIC) test
Assay type: cell-based
Design: key to bacteria growth (values equal to or higher than 10 mean growth, less than 10 no growth): % of OD620 of control well without actives (full growth)
Conditions: for reduction of level when combined (MIC alone / level in combination): 33.3/3.13 for hinokitiol, 12.5/6.25 for piroctone olamine
Experimental: One way to combat the issues of cost of a material is to combine it with a lower cost material. This can be complicated depending on whether the materials interact, what each of the materials target, whether they can complement one another, how much of each is needed for efficacy, etc. This is considered to be an additive interaction between the materials, i.e. where each is doing what one would expect based on their individual properties. Occasionally, when materials are added together the combination performs better than what would be expected based on the individual performances. This is considered a synergistic relationship. Synergy can be determined through the use of a Combinatorial Minimum Inhibitory Concentration (“cMIC”) test. This can be used to determine the combinatorial effects of two chemicals on anti-bacterial activity in a tissue culture setting.
It has been discovered that there is a synergistic relationship between hinokitiol and a 2-pyridinol N-oxide material, piroctone olamine. cMIC testing was conducted utilizing Staphylococcus aureus as the bacteria. […] When combined, they were efficacious at levels of 6.25 ppm piroctone olamine and only 3.13 ppm of hinokitiol. Thus, a benefit is seen where the combination of piroctone olamine and hinokitiol comprise about 9 ppm or more by weight of the cleansing composition. Thus, hinokitiol and piroctone olamine levels are reduced by 10.7 times (33.3/3.13) and 2 times (12.5/6.25), respectively. […] Thus, combining piroctone olamine and hinokitiol allows for the use of less of each material and can reduce costs.
Combinatorial Minimum Inhibitory Concentration (cMIC) Method
A Combinatorial Minimum Inhibitory Concentration (“cMIC”) is used to determine the combinatorial effects of two chemicals on anti-bacterial activity in a tissue culture setting. Herein, the cMIC is a measure of the Minimum Inhibitory concentrations (MIC) of Hinokitiol in combination with Piroctone Olamine or vice versa.
1. Method Overview: • a. Each cMIC assay is run in triplicates. • b. Staphylococcus aureus ATCC 6538 is cultured on tryptic soy agar (TSA) (Oxoid CM0131) over 24 hours. The single colonies are then transferred into saline and mixed through vortex to obtain an optical density (OD) of 0.08-0.13 at 620 nm. 200 μL of this bacterial suspension is added to 19.8 mL of Mueller Hinton Broth (MHB) (BD 212322). This gives 5×10^5 cfu/mL. 100 μL of this bacteria-MHB mix is added to a 96 well flat-bottomed plate (TRP 92196). • c. Hinokitiol is pipetted into the wells in varying concentrations as indicated below. • d. Piroctone Olamine is pipetted into the wells in varying concentrations, as indicated below. • e. The plates are then read using a spectrophotometer at 620 nm. This is the 0-hour reading. • f. The plates are incubated at 37° C. between 18-24 hours with shaking at 50 rpm. • g. The optical density of the plate is then measured using a spectrophotometer at 620 nm. • h. The OD value is calculated as subtraction of the readings between 18-24 hour and the 0-hour. • i. cMIC is determined as the minimal concentration of Hinokitiol in combination with Piroctone Olamine or vice versa, corresponding to the well whose OD value is less than 10% of the OD value of the control well without Hinokitiol and Piroctone Olamine (full growth).

Row | MIC (Staphylococcus aureus, ATCC6538, single material alone, read-out: minimum inhibitory concentration (MIC) against Staphylococcus aureus) | Structure (SMILES) | reduction of level when combined (MIC alone / level in combination) | bacteria growth (values equal to or higher than 10 mean growth, less than 10 no growth) (Hinokitiol 3.13 ppm alone (Piroctone Olamine 0 ppm)) | bacteria growth (values equal to or higher than 10 mean growth, less than 10 no growth) (Hinokitiol 6.25 ppm alone (Piroctone Olamine 0 ppm)) | bacteria growth (values equal to or higher than 10 mean growth, less than 10 no growth) (Hinokitiol 12.5 ppm alone (Piroctone Olamine 0 ppm)) | bacteria growth (values equal to or higher than 10 mean growth, less than 10 no growth) (Hinokitiol 25 ppm alone (Piroctone Olamine 0 ppm)) | bacteria growth (values equal to or higher than 10 mean growth, less than 10 no growth) (Hinokitiol 33.5 ppm alone (Piroctone Olamine 0 ppm)) | bacteria growth (values equal to or higher than 10 mean growth, less than 10 no growth) (Hinokitiol 42.5 ppm alone (Piroctone Olamine 0 ppm)) | bacteria growth (values equal to or higher than 10 mean growth, less than 10 no growth) (Hinokitiol 50 ppm alone (Piroctone Olamine 0 ppm)) | Bacterial growth (Piroctone olamine 0 ppm, Hinokitiol 33.5 ppm) | bacteria growth (values equal to or higher than 10 mean growth, less than 10 no growth) (Piroctone Olamine 3.13 ppm alone (Hinokitiol 0 ppm)) | bacteria growth (values equal to or higher than 10 mean growth, less than 10 no growth) (Piroctone Olamine 6.25 ppm alone (Hinokitiol 0 ppm)) | bacteria growth (values equal to or higher than 10 mean growth, less than 10 no growth) (Piroctone Olamine 12.5 ppm alone (Hinokitiol 0 ppm)) | bacteria growth (values equal to or higher than 10 mean growth, less than 10 no growth) (Piroctone Olamine 15 ppm alone (Hinokitiol 0 ppm)) | bacteria growth (values equal to or higher than 10 mean growth, less than 10 no growth) (Piroctone Olamine 17.5 ppm alone (Hinokitiol 0 ppm)) | bacteria growth (values equal to or higher than 10 mean growth, less than 10 no growth) (Piroctone Olamine 20 ppm alone (Hinokitiol 0 ppm)) | bacteria growth (values equal to or higher than 10 mean growth, less than 10 no growth) (Piroctone Olamine 25 ppm alone (Hinokitiol 0 ppm)) | Bacterial growth (Piroctone olamine 6.25 ppm, Hinokitiol 0 ppm) | minimum inhibitory concentration (MIC) against Staphylococcus aureus (single material alone)
1 | 33.3 µg/mL | CC(C)c1cccc(=O)c(O)c1 [Hinokitiol] | 10.7 times | 78 | 103 | 65 | 17 | 4 | 2 | 1 | Yes | – | – | – | – | – | – | – | – | –
2 | – | Cc1cc(CC(C)CC(C)(C)C)n(O)c(=O)c1.NCCO (centres unmarked) [Piroctone Olamine, piroctone olamine] | 2 times | – | – | – | – | – | – | – | – | 94 | 46 | 1 | 1 | 1 | 1 | 2 | Yes | 12.5 ppm

Source: patent US11191705B2, “Personal cleansing compositions” (The Procter & Gamble Company, priority 2018, dated 2021)
